Assay results as given in BigSolDB 2.1.

Cc1cccc2sc(NN)nc12
solubility (mole fraction)
Settings | 273.15 K | 278.15 K | 283.15 K | 288.15 K | 293.15 K | 298.15 K | 303.15 K | 308.15 K | 313.15 K | 318.15 K
in acetone | 0.00958 | 0.0118 | 0.0142 | 0.0172 | 0.0203 | 0.024 | 0.0285 | 0.0335 | 0.0391 | 0.0456
in ethanol | 0.000807 | 0.00103 | 0.00131 | 0.00165 | 0.00203 | 0.00252 | 0.00313 | 0.00377 | 0.0046 | 0.00555
in ethyl acetate | 0.00359 | 0.00453 | 0.00569 | 0.00696 | 0.00848 | 0.0101 | 0.0124 | 0.0147 | 0.0176 | 0.0209
in isopropanol | 0.000928 | 0.00123 | 0.00153 | 0.00191 | 0.00235 | 0.00288 | 0.00353 | 0.00429 | 0.00519 | 0.0062
in methanol | 0.000589 | 0.000758 | 0.00095 | 0.00119 | 0.00151 | 0.00185 | 0.00232 | 0.00284 | 0.00348 | 0.00422
in n-butanol | 0.00137 | 0.00168 | 0.00216 | 0.00263 | 0.00329 | 0.00403 | 0.00505 | 0.00616 | 0.00755 | 0.00904
in n-propanol | 0.00115 | 0.00143 | 0.00178 | 0.00218 | 0.00272 | 0.0033 | 0.00395 | 0.00481 | 0.00573 | 0.00696
in toluene | 0.00227 | 0.00276 | 0.00366 | 0.00473 | 0.00583 | 0.00736 | 0.00925 | 0.0116 | 0.0145 | 0.0178
in water | 7.03e-06 | 9.04e-06 | 1.18e-05 | 1.51e-05 | 1.96e-05 | 2.56e-05 | 3.21e-05 | 4.05e-05 | 5.05e-05 | 6.25e-05
